Active and inactive are the calls of the source. No cut-off for these calls is given here.
Experiments:
Staphylococcus aureus [1] = assay: Antibacterial activity against methicillin-resistant Staphylococcus aureus BAA-1683 assessed as enhancement factor at 50 uM in presence of vancomycin (reference value: 2 ug/ml); type: functional
Staphylococcus aureus [2] = assay: Antibacterial activity against vancomycin-intermediate resistant Staphylococcus aureus Mu50 assessed as enhancement factor at 50 uM in presence of vancomycin (reference value: 4 ug/ml); type: functional
Staphylococcus aureus [3] = assay: Antibacterial activity against vancomycin-intermediate resistant Staphylococcus aureus Mu50 assessed as enhancement factor at 50 uM in presence of oxacillin (reference value: 256 ug/ml); type: functional
Staphylococcus aureus [4] = assay: Antibacterial activity against vancomycin-intermediate resistant Staphylococcus aureus Mu50 assessed as enhancement factor at 50 uM in presence of penicillin G (reference value: 16 ug/ml); type: functional
Staphylococcus aureus [5] = assay: Antibacterial activity against vancomycin-intermediate resistant Staphylococcus aureus Mu50 assessed as enhancement factor at 50 uM in presence of Chloramphenicol (reference value: 16 ug/ml); type: functional
Staphylococcus aureus [6] = assay: Antibacterial activity against methicillin-resistant Staphylococcus aureus USA 300 assessed as enhancement factor at 50 uM in presence of vancomycin (reference value: 2 ug/ml); type: functional
Staphylococcus aureus [7] = assay: Antibacterial activity against methicillin-resistant Staphylococcus aureus USA 300 assessed as enhancement factor at 50 uM in presence of oxacillin (reference value: 16 ug/ml); type: functional
Staphylococcus aureus [8] = assay: Antibacterial activity against methicillin-resistant Staphylococcus aureus USA 300 assessed as enhancement factor at 50 uM in presence of penicillin G (reference value: 128 ug/ml); type: functional
Staphylococcus aureus [9] = assay: Antibacterial activity against methicillin-resistant Staphylococcus aureus USA 300 assessed as enhancement factor at 50 uM in presence of Chloramphenicol (reference value: 2 ug/ml); type: functional
Staphylococcus aureus [10] = assay: Antibacterial activity against methicillin-resistant Staphylococcus aureus BAA 41 assessed as enhancement factor at 50 uM in presence of oxacillin (reference value: 256 ug/ml); type: functional
Staphylococcus aureus [11] = assay: Antibacterial activity against methicillin-resistant Staphylococcus aureus BAA 41 assessed as enhancement factor at 50 uM in presence of vancomycin (reference value: 2 ug/ml); type: functional
Staphylococcus aureus [12] = assay: Antibacterial activity against methicillin-resistant Staphylococcus aureus BAA 42 assessed as enhancement factor at 50 uM in presence of oxacillin (reference value: 64 ug/ml); type: functional
Staphylococcus aureus [13] = assay: Antibacterial activity against methicillin-resistant Staphylococcus aureus BAA 42 assessed as enhancement factor at 50 uM in presence of vancomycin (reference value: 1 ug/ml); type: functional
Staphylococcus aureus [14] = assay: Antibacterial activity against methicillin-resistant Staphylococcus aureus BAA-2094 assessed as enhancement factor at 50 uM in presence of oxacillin (reference value: 8 to 16 ug/ml); type: functional
Staphylococcus aureus [15] = assay: Antibacterial activity against methicillin-resistant Staphylococcus aureus BAA-2094 assessed as enhancement factor at 50 uM in presence of vancomycin (reference value: 2 ug/ml); type: functional
Staphylococcus aureus [16] = assay: Antibacterial activity against methicillin-resistant Staphylococcus aureus BAA-1683 assessed as enhancement factor at 50 uM in presence of oxacillin (reference value: 32 ug/ml); type: functional
Staphylococcus aureus [17] = assay: Antibacterial activity against methicillin-resistant Staphylococcus aureus ATCC 33592 assessed as enhancement factor at 50 uM in presence of oxacillin (reference value: 128 ug/ml); type: functional
Staphylococcus aureus [18] = assay: Antibacterial activity against methicillin-resistant Staphylococcus aureus ATCC 33592 assessed as enhancement factor at 50 uM in presence of vancomycin (reference value: 2 ug/ml); type: functional
Staphylococcus aureus [19] = assay: Antibacterial activity against vancomycin-intermediate resistant Staphylococcus aureus Mu50 assessed as fold reduction at 50 uM in presence of vancomycin; type: functional
Staphylococcus aureus [20] = assay: Antibacterial activity against vancomycin-intermediate resistant Staphylococcus aureus Mu50 assessed as fold reduction at 50 uM in presence of oxacillin; type: functional
Staphylococcus aureus [21] = assay: Antibacterial activity against vancomycin-intermediate resistant Staphylococcus aureus Mu50 assessed as fold reduction at 50 uM in presence of penicillin G; type: functional
Staphylococcus aureus [22] = assay: Antibacterial activity against methicillin-resistant Staphylococcus aureus USA 300 assessed as fold reduction at 50 uM in presence of vancomycin; type: functional
Staphylococcus aureus [23] = assay: Antibacterial activity against methicillin-resistant Staphylococcus aureus USA 300 assessed as fold reduction at 50 uM in presence of Chloramphenicol; type: functional
Staphylococcus aureus [24] = assay: Synergistic antibacterial activity against vancomycin-intermediate resistant Staphylococcus aureus Mu50 assessed as fractional inhibitory concentration index at […] in presence of vancomycin by checkerboard assay; type: functional
Staphylococcus aureus [25] = assay: Synergistic antibacterial activity against vancomycin-intermediate resistant Staphylococcus aureus Mu50 assessed as fractional inhibitory concentration index at >400 times MIC in presence of oxacillin by checkerboard assay; type: functional
Staphylococcus aureus [26] = assay: Synergistic antibacterial activity against vancomycin-intermediate resistant Staphylococcus aureus Mu50 assessed as fractional inhibitory concentration index at >400 times MIC in presence of penicillin G by checkerboard assay; type: functional
[27] = molecular target: T1, Sensor protein VraS (Staphylococcus aureus (strain N315)) (UniProt Q99SZ7); assay: Inhibition of GST tagged VraS ATPase activity in vancomycin-intermediate resistant Staphylococcus aureus assessed as residual activity at 0.1 to 300 uM by kinase-coupled assay relative to control; conditions: dose 0.1-300 µM
T1 sequence (whole entry): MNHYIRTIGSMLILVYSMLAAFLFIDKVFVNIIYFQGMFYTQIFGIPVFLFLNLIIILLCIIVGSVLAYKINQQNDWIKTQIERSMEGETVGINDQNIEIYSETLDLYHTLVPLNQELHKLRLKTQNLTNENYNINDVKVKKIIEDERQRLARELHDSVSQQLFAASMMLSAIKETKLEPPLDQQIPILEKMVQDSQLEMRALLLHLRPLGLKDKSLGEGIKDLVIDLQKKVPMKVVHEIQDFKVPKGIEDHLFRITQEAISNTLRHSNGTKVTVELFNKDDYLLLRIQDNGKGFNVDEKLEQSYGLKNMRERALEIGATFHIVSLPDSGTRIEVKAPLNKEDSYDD

Sensor protein VraS = molecular target: T2, Sensor protein VraS (Staphylococcus aureus (strain N315), UniProt Q99SZ7); assay: Inhibition of GST tagged VraS ATPase activity in vancomycin-intermediate resistant Staphylococcus aureus by kinase-coupled assay
T2 sequence (Q99SZ7 whole entry): T1 sequence (whole entry)

Staphylococcus aureus [28] = assay: Suppression of oxacillin-induced vraSR gene transcription in vancomycin-intermediate resistant Staphylococcus aureus Mu50 assessed as decrease in vraSR transcript level by RT-qPCR analysis; type: functional, organism-based
Staphylococcus aureus [29] = assay: Suppression of vancomycin-induced vraSR gene transcription in vancomycin-intermediate resistant Staphylococcus aureus Mu50 assessed as decrease in vraSR transcript level by RT-qPCR analysis; type: functional, organism-based
Staphylococcus aureus [30] = assay: Suppression of vancomycin-induced pbp2 gene transcription in vancomycin-intermediate resistant Staphylococcus aureus Mu50 assessed as decrease in pbp2 transcript level by RT-qPCR analysis; type: functional, organism-based
Staphylococcus aureus [31] = assay: Suppression of oxacillin-induced pbp2 gene transcription in vancomycin-intermediate resistant Staphylococcus aureus Mu50 assessed as decrease in pbp2 transcript level by RT-qPCR analysis; type: functional, organism-based
Staphylococcus aureus [32] = assay: Suppression of oxacillin-induced mecA gene transcription in vancomycin-intermediate resistant Staphylococcus aureus Mu50 assessed as decrease in mecA transcript level by RT-qPCR analysis; type: functional, organism-based
Staphylococcus aureus [33] = assay: Suppression of vancomycin-induced mecA gene transcription in vancomycin-intermediate resistant Staphylococcus aureus Mu50 assessed as decrease in mecA transcript level by RT-qPCR analysis; type: functional, organism-based
[34] = Cytotoxicity against MDCK cells assessed as reduction in cell viability incubated for 24 hrs by MTT assay; type: toxicity, cell-based, Canis lupus familiaris; conditions: dog
Staphylococcus aureus [35] = assay: Antibacterial activity against methicillin-resistant Staphylococcus aureus ATCC 33592 assessed as fold reduction at 50 uM in presence of oxacillin (reference value: 128 ug/ml); type: functional
Staphylococcus aureus [36] = assay: Antibacterial activity against methicillin-resistant Staphylococcus aureus ATCC 33592 assessed as fold reduction at 50 uM in presence of vancomycin; type: functional
Staphylococcus aureus [37] = assay: Antibacterial activity against methicillin-resistant Staphylococcus aureus USA 300(BAA-1556) assessed as fold reduction in presence of vancomycin; type: functional
Staphylococcus aureus [38] = assay: Synergistic antibacterial activity against vancomycin-intermediate resistant Staphylococcus aureus Mu50 assessed as microbial growth at 50 uM in presence of vancomycin at 0.125 ug/ml by checkerboard assay; type: functional, organism-based
Staphylococcus aureus [39] = assay: Synergistic antibacterial activity against vancomycin-intermediate resistant Staphylococcus aureus Mu50 assessed as microbial growth at 50 uM in presence of oxacillin at 2 to 4 ug/ml by checkerboard assay; type: functional, organism-based
Staphylococcus aureus [40] = assay: Synergistic antibacterial activity against vancomycin-intermediate resistant Staphylococcus aureus Mu50 assessed as microbial growth at 50 uM in presence of penicillin G at 4 ug/ml by checkerboard assay; type: functional, organism-based

With CCSc1nc2ccc(NC(=O)NC(c3cc(C)ccn3)C3CC3)cc2o1 (stereo not given) the MIC (Staphylococcus aureus [1]) was 0.5 µg/mL, the MIC (Staphylococcus aureus [2]) was 0.25 µg/mL and the MIC (Staphylococcus aureus [3]) was 8 µg/mL. For the same compound, the MIC (Staphylococcus aureus [4]) was 4 µg/mL, the MIC (Staphylococcus aureus [5]) was 16 µg/mL and the MIC (Staphylococcus aureus [6]) was 0.5 µg/mL. For the same compound, the MIC (Staphylococcus aureus [7]) was 16 µg/mL, the MIC (Staphylococcus aureus [8]) was 128 µg/mL and the MIC (Staphylococcus aureus [9]) was 0.25 µg/mL. For the same compound, the MIC (Staphylococcus aureus [10]) was less than 2 µg/mL, the MIC (Staphylococcus aureus [11]) was 0.25 µg/mL and the MIC (Staphylococcus aureus [12]) was less than 2 µg/mL. It also gave an MIC (Staphylococcus aureus [13]) of less than 0.25 µg/mL, an MIC (Staphylococcus aureus [14]) of less than 2 µg/mL and an MIC (Staphylococcus aureus [15]) of 0.5 µg/mL. For the same compound, the MIC (Staphylococcus aureus [16]) was less than 2 µg/mL, the MIC (Staphylococcus aureus [17]) was less than 2 µg/mL and the MIC (Staphylococcus aureus [18]) was less than 0.25 µg/mL. For the same compound, the “fold change (FC)” value (Staphylococcus aureus [19]) was 16, the “fold change (FC)” value (Staphylococcus aureus [20]) was 32 and the “fold change (FC)” value (Staphylococcus aureus [21]) was 4. The “fold change (FC)” value (Staphylococcus aureus [22]) was 2, the “fold change (FC)” value (Staphylococcus aureus [23]) was 4 and the “fractional inhibitory concentration index (FICI)” value (Staphylococcus aureus [24]) was less than 0.12. For the same compound, the “fractional inhibitory concentration index (FICI)” value (Staphylococcus aureus [25]) was “<=0.31”, the “fractional inhibitory concentration index (FICI)” value (Staphylococcus aureus [26]) was “<=0.31” and the Activity [27] was 35%. For the same compound, the IC50 (Sensor protein VraS) was 0.94 µM, the Activity (Staphylococcus aureus [28]) was “Active” and the Activity (Staphylococcus aureus [29]) was “Active”. The Activity (Staphylococcus aureus [30]) was “Active”, the Activity (Staphylococcus aureus [31]) was “Active” and the Activity (Staphylococcus aureus [32]) was “Active”. For the same compound, the Activity (Staphylococcus aureus [33]) was “Active”, the IC50 at 24 h [34] was greater than 100 µM and the “fold change (FC)” value (Staphylococcus aureus [35]) was 16. The “fold change (FC)” value (Staphylococcus aureus [36]) was roughly 4, the “fold change (FC)” value (Staphylococcus aureus [37]) was 4 and the Activity (Staphylococcus aureus [38]) was “Active”. For the same compound, the Activity (Staphylococcus aureus [39]) was “Active” and the Activity (Staphylococcus aureus [40]) was “Active”.

Cc1ccnc(C(NC(=O)Nc2ccc3nnn(C)c3c2)C2CC2)c1 (stereo not given) gave an MIC (Staphylococcus aureus [2]) of 4 µg/mL and an MIC (Staphylococcus aureus [3]) of 256 µg/mL.

Cc1ccnc(C(NC(=O)Nc2ccc3c(c2)OCC(=O)N3C)C2CC2)c1 (stereo not given) showed an MIC (Staphylococcus aureus [2]) of 4 µg/mL and an MIC (Staphylococcus aureus [3]) of 256 µg/mL.
